Measured values taken from the supplement of paper PMC10307832.

What was measured:
Assay in all cases: relative viability (nuclei count vs DMSO), 5 days (fraction); higher = more cells survive
[1] = compound: COc1cccc2c1C(=O)c1c(O)c3c(c(O)c1C2=O)C[C@@](O)(C(=O)CO)C[C@@H]3O[C@H]1C[C@H](N)[C@H](O)[C@H](C)O1 [Doxorubicin] + Cc1nc(Nc2ncc(C(=O)Nc3c(C)cccc3Cl)s2)cc(N2CCN(CCO)CC2)n1 [Dasatinib] (partner 0.075 µM)
Procedure, shortened: (§1)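 Relative viability equals treated-well nuclei counts divided by vehicle-well nuclei counts. Counts came from 4× images of lung cancer cell lines grown in 1536-well plates for 5 days after pin-tool dosing on the day after seeding. Dosing used one drug alone or a fixed anchor-drug dose plus five library-drug doses (not always all listed) in √10 steps, and values are medians of duplicate plates.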

[2] = compound: COc1cccc2c1C(=O)c1c(O)c3c(c(O)c1C2=O)C[C@@](O)(C(=O)CO)C[C@@H]3O[C@H]1C[C@H](N)[C@H](O)[C@H](C)O1 [Doxorubicin] + CCNC(=O)c1noc(-c2cc(C(C)C)c(O)cc2O)c1-c1ccc(CN2CCOCC2)cc1 [Luminespib] (partner 0.01 µM)
Procedure, shortened: as §1

[3] = compound: COC1=C(C=C(C=C1)C2=CC3=NC=CN3C(=N2)NC4=C(C=CC=N4)C(=O)N)OC [BAY61-3606] + CC(C)C[C@H](NC(=O)[C@H](Cc1ccccc1)NC(=O)c1cnccn1)B(O)O [Bortezomib] (partner 0.002 µM)
Procedure, shortened: as §1

[4] = compound: COC1=C(C=C(C=C1)C2=CC3=NC=CN3C(=N2)NC4=C(C=CC=N4)C(=O)N)OC [BAY61-3606] + Nc1ncn([C@H]2C[C@H](O)[C@@H](CO)O2)c(=O)n1 [Decitabine] (partner 2 µM)
Procedure, shortened: as §1

Row | Cell Line | relative viability ([1]; first compound 0.001 µM) | relative viability ([1]; first compound 0.003162 µM) | relative viability ([1]; first compound 0.01 µM) | relative viability ([1]; first compound 0.03162 µM) | relative viability ([1]; first compound 0.1 µM) | relative viability ([2]; first compound 0.001 µM) | relative viability ([2]; first compound 0.003162 µM) | relative viability ([2]; first compound 0.01 µM) | relative viability ([2]; first compound 0.03162 µM) | relative viability ([2]; first compound 0.1 µM) | relative viability ([3]; first compound 0.02 µM) | relative viability ([3]; first compound 0.06325 µM) | relative viability ([3]; first compound 0.2 µM) | relative viability ([3]; first compound 0.6325 µM) | relative viability ([3]; first compound 2 µM) | relative viability ([4]; first compound 0.02 µM) | relative viability ([4]; first compound 0.06325 µM) | relative viability ([4]; first compound 0.2 µM) | relative viability ([4]; first compound 0.6325 µM) | relative viability ([4]; first compound 2 µM)
1 | NCI-H2023 | 0.672 | 0.588 | 0.431 | 0.173 | 0.0859 | 0.765 | 0.677 | 0.243 | 0.0918 | 0.0632 | 1.1 | 1.08 | 1.09 | 1.24 | 0.735 | 0.221 | 0.297 | 0.237 | 0.266 | 0.19
2 | NCI-H2085 | 0.286 | 0.278 | 0.224 | 0.224 | 0.241 | 0.471 | 0.462 | 0.46 | 0.47 | 0.478 | 1.11 | 1.07 | 1.06 | 1.13 | 0.953 | 0.531 | 0.528 | 0.555 | 0.531 | 0.53
3 | NCI-H2087 |  | 0.844 | 0.769 | 0.475 | 0.222 |  | 0.19 | 0.14 | 0.133 | 0.144 | 0.908 | 0.862 | 0.869 | 0.759 | 0.746 | 0.352 | 0.291 | 0.295 | 0.269 | 0.229
4 | NCI-H2126 | 0.619 | 0.556 | 0.55 | 0.232 | 0.224 | 0.643 | 0.88 | 0.817 | 0.394 | 0.286 | 1.11 | 1.13 | 1.08 | 1.08 | 1.07 | 0.631 | 0.606 | 0.583 | 0.623 | 0.555
5 | NCI-H2347 | 0.271 | 0.322 | 0.327 | 0.283 | 0.307 | 0.385 | 0.547 | 0.527 | 0.415 | 0.439 | 1.09 | 0.815 | 0.971 | 0.869 | 1.01 | 0.731 | 0.63 | 0.599 | 0.698 | 0.666
6 | NCI-H2405 | 0.187 | 0.208 | 0.243 | 0.207 | 0.177 | 0.572 | 0.701 | 0.778 | 0.599 | 0.6 | 0.992 | 0.973 | 0.961 | 0.964 | 0.942 | 0.798 | 0.78 | 0.703 | 0.779 | 0.643
